Experimental data from patent US12479847B2 (DANA-FARBER CANCER INSTITUTE, INC., priority 2019, dated 2025).

Key:
Test in all cases: KINOMEscan (ScanMAX) kinase profiling
Type in all cases: binding
panel of 468 kinases [1] = biological target: T1, panel of 468 kinases (Homo sapiens, UniProt O43283); conditions: LZK; 1 μM; read-out: % control
T1 construct: purchased KINOMEscan (ScanMAX) service
T1 sequence (O43283 1-966): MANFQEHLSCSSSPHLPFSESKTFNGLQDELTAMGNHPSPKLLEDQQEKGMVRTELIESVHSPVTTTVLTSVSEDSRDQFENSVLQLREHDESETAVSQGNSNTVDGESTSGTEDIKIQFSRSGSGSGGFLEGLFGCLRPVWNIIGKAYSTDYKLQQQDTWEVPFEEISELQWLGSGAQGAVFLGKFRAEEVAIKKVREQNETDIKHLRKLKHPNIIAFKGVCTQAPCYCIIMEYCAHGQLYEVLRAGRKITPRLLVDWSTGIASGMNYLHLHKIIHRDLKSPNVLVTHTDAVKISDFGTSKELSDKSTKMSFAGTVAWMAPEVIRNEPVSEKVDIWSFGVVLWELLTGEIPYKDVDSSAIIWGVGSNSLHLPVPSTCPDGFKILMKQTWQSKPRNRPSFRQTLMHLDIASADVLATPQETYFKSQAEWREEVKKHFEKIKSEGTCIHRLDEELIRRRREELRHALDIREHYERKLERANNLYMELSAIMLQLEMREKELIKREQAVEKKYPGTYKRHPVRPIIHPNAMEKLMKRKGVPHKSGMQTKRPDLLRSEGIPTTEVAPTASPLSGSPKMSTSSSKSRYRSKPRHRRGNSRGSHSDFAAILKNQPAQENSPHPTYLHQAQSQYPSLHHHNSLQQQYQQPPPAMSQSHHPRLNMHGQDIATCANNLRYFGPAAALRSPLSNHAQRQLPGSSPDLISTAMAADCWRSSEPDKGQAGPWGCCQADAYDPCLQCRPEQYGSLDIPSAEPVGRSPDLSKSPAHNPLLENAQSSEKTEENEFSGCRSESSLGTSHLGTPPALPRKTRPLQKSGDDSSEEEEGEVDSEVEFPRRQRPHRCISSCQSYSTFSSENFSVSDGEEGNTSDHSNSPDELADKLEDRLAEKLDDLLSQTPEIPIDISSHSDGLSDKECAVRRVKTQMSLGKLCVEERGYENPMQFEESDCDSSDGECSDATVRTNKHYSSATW

panel of 468 kinases [2] = biological target: T2, panel of 468 kinases (Homo sapiens, UniProt P00533, DEL746-750); conditions: EGFR(E746-A750del); 1 μM; read-out: % control
T2 construct: purchased KINOMEscan (ScanMAX) service

panel of 468 kinases [3] = biological target: T3, panel of 468 kinases (Homo sapiens, UniProt P08922); conditions: ROS1; 1 μM; read-out: % control
T3 construct: purchased KINOMEscan (ScanMAX) service

panel of 468 kinases [4] = biological target: T4, panel of 468 kinases (Homo sapiens, UniProt P36888, R834Q); conditions: FLT3(R834Q); 1 μM; read-out: % control
T4 construct: purchased KINOMEscan (ScanMAX) service
T4 sequence (P36888 27-993 R834Q): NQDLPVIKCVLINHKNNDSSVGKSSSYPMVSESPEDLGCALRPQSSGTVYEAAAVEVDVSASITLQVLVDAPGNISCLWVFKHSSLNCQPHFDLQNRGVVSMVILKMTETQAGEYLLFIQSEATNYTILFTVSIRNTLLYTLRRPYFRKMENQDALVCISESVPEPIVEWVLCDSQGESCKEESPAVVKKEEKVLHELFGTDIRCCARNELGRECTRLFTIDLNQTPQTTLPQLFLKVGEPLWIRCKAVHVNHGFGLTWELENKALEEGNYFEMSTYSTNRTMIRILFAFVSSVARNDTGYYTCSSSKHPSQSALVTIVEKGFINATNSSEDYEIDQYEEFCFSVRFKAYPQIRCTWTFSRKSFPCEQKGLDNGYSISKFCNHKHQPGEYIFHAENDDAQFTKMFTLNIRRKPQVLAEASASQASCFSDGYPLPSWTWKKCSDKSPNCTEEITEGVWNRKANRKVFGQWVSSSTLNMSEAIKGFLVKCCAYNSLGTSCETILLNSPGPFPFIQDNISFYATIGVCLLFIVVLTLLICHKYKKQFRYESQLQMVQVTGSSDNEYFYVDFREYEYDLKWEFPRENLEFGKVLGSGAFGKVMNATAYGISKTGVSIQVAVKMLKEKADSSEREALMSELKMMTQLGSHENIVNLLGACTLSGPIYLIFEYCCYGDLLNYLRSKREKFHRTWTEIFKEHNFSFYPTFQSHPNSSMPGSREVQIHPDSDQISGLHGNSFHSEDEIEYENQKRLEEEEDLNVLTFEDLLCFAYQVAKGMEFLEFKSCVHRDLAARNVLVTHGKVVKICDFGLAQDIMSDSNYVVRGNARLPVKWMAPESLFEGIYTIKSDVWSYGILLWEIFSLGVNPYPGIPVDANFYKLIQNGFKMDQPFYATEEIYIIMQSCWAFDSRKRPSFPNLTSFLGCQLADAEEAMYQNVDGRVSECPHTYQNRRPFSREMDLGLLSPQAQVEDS

panel of 468 kinases [5] = biological target: T5, panel of 468 kinases (Homo sapiens, UniProt P48729); conditions: CSNK1A1; 1 μM; read-out: % control
T5 construct: purchased KINOMEscan (ScanMAX) service

panel of 468 kinases [6] = biological target: T6, panel of 468 kinases (Homo sapiens, UniProt Q14289); conditions: PYK2; 1 μM; read-out: % control
T6 construct: purchased KINOMEscan (ScanMAX) service

panel of 468 kinases [7] = biological target: T7, panel of 468 kinases (Homo sapiens, UniProt Q2M2I8); conditions: AAK1; 1 μM; read-out: % control
T7 construct: purchased KINOMEscan (ScanMAX) service
T7 sequence (Q2M2I8 whole entry): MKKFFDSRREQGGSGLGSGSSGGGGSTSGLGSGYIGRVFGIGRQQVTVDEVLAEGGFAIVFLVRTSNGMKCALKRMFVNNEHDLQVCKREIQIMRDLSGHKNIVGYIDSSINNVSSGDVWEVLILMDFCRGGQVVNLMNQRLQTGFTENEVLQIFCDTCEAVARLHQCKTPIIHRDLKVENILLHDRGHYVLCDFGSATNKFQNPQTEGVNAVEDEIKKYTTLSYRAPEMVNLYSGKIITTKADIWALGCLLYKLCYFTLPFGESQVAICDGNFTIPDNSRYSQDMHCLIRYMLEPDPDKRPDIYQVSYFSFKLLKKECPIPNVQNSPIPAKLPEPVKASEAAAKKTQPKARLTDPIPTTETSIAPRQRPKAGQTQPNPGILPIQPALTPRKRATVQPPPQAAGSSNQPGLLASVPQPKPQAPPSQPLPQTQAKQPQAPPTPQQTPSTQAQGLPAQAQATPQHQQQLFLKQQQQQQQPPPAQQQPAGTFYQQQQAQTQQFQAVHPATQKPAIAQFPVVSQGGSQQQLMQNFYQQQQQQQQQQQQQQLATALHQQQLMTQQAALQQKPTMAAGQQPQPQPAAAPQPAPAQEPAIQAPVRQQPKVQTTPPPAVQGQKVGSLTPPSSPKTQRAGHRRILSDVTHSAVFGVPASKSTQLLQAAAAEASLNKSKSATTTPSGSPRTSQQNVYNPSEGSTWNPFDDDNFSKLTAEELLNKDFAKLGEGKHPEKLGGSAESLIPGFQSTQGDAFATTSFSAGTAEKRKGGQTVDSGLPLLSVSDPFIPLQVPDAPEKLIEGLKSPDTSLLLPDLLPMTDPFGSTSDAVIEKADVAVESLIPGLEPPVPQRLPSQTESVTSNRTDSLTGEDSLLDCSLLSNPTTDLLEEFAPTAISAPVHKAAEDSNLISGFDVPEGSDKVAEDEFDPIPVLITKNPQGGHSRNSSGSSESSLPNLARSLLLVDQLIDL

T6 sequence (Q14289 whole entry): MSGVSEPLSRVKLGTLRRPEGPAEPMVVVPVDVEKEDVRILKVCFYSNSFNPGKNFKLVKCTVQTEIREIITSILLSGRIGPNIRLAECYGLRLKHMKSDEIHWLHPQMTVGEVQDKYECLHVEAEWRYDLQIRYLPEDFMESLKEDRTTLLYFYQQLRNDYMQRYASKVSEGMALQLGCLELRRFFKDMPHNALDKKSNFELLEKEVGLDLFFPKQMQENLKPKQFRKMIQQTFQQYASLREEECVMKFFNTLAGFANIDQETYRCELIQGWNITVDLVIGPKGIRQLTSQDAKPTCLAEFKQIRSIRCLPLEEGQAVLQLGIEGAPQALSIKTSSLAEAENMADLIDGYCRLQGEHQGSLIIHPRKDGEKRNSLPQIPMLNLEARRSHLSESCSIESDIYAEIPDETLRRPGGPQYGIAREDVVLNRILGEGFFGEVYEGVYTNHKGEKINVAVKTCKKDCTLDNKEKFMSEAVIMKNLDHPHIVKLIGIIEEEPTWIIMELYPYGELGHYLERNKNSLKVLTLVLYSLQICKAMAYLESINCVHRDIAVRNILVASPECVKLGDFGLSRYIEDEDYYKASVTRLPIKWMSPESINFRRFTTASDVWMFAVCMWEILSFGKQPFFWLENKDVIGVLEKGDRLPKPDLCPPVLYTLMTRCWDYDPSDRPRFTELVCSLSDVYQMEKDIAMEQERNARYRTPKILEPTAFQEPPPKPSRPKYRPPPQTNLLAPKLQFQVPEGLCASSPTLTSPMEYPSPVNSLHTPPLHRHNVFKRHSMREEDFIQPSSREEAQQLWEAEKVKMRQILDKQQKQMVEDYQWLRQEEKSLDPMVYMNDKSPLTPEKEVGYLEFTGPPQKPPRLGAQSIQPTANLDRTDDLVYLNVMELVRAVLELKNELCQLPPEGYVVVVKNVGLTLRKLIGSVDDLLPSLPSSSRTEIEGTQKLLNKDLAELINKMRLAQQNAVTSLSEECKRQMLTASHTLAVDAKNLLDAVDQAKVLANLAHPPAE
T2 sequence (P00533 with tags, fused parts or gaps DEL746-750): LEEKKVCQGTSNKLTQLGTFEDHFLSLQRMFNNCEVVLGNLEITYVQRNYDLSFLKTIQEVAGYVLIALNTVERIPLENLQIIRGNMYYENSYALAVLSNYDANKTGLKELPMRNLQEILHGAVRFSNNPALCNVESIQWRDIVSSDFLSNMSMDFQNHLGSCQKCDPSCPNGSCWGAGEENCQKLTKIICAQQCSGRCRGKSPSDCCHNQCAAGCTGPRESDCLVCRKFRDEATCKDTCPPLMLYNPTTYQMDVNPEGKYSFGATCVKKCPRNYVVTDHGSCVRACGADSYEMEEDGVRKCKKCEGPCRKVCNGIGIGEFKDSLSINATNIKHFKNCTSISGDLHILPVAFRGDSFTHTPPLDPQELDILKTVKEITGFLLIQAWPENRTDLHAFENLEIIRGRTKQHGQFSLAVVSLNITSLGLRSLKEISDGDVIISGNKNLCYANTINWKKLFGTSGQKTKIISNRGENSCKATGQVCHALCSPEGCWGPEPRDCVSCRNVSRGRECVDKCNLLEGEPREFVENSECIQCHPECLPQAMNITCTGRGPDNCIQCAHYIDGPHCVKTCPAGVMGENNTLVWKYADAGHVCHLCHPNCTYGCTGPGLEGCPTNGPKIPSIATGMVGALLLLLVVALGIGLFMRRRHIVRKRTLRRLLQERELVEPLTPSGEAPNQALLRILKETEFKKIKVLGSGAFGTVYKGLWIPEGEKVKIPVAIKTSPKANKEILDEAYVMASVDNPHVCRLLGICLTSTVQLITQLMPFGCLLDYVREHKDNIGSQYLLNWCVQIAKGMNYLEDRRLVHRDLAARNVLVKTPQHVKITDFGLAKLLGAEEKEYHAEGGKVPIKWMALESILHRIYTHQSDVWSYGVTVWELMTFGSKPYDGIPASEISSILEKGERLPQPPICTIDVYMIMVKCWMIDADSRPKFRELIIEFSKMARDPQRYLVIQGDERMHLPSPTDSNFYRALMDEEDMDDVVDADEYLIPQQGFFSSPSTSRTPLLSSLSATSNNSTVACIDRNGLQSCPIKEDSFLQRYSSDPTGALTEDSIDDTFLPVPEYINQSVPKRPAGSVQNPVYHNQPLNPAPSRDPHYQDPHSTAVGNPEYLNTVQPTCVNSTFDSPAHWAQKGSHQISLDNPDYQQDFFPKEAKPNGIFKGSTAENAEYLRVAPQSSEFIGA
T5 sequence (P48729 whole entry): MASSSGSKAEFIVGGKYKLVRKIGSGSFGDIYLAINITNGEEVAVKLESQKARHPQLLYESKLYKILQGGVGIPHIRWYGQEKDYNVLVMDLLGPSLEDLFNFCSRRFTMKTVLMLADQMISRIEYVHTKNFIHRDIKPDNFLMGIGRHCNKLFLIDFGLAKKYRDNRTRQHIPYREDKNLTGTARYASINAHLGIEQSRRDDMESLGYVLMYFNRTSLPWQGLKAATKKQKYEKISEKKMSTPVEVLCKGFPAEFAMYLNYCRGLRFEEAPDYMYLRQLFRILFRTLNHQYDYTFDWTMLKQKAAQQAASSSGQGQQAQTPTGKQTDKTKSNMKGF

SMILES | remaining binding at 1 µM (panel of 468 kinases [1]) [%] | remaining binding at 1 µM (panel of 468 kinases [2]) [%] | remaining binding at 1 µM (panel of 468 kinases [3]) [%] | remaining binding at 1 µM (panel of 468 kinases [4]) [%] | remaining binding at 1 µM (panel of 468 kinases [5]) [%] | remaining binding at 1 µM (panel of 468 kinases [6]) [%] | remaining binding at 1 µM (panel of 468 kinases [7]) [%]
CNc1nc(Nc2ccc(S(=O)(=O)N3CCC(N4CCOCC4)CC3)cc2OC)nc2[nH]cc(Cl)c12 [Compound 12, 5-chloro-N2-(2-methoxy-4-((4-morpholinopiperidin-1-yl)sulfonyl)phenyl)-N4-methyl-7H-pyrrolo[2,3-d]pyrimidine-2,4-diamine] | 63 | 75 | 85 | 92 | 48 | 35 | 100
CNc1nc(Nc2ccc(C(=O)N3CCC(N4CCOCC4)CC3)c3c2OCO3)nc2[nH]cc(Cl)c12 [Compound 75, (7-((5-chloro-4-(methylamino)-7H-pyrrolo[2,3-d]pyrimidin-2-yl)amino)benzo[d][1,3]dioxol-4-yl)(4-morpholinopiperidin-1-yl)methanone] | 57 | 94 | 86 | 73 | 32 | 40 | 13
CNc1nc(Nc2ccc(P3(=O)CCN(C4CCOCC4)CC3)cc2OC)nc2[nH]cc(Cl)c12 [Compound 77, 4-(4-((5-chloro-4-(methylamino)-7H-pyrrolo[2,3-d]pyrimidin-2-yl)amino)-3-methoxyphenyl)-1-(tetrahydro-2H-pyran-4-yl)-1,4-azaphosphinane 4-oxide] | 62 | 87 | 54 | 82 | 27 | 27 | 99
